According to patent publication US20050239832A1, “Methods of treatment of amyloidosis using bi-cyclic aspartyl protease inhibitors” (priority 2004, published 2005):

Experiments:
in vivo = details: CF-1, mouse, iv
Procedure: The following assay was employed to determine the brain penetration of compounds encompassed by the present invention.
In-life phase: Test compounds were administered to CF-1 (20-30 g) mice at 10 μmol/kg (4 to 7 mg/kg) following IV administration in the tail vein. Two time-points, 5 and 60 min, were collected post dose. Four mice were harvested for heparinized plasma and non-perfused brains at each time-point for a total of 8 mice per compound.
Analytical phase: Samples were extracted and evaporated to dryness, then reconstituted and injected onto a reverse phase chromatographic column while monitoring the effluent with a triple quadrupole mass spectrometer. Quantitation was then performed with a 1/x^2 weighted fit of the least-squares regression from calibration standards prepared in parallel with the in vivo samples. The LOQ is generally 1 ng/mL and 0.5 ng/g for the plasma and brain respectively. Data was reported in micromolar (μM) units. Brain levels were corrected for plasma volumes (16 μL/g).

[1] = system: catD versus beta-secretase (BACE); assay: Selectivity for inhibiting BACE over aspartyl protease catD (ratio of IC50 values); format: biochemical; details: average of four experimental runs
Procedure: Investigation of potential beta-secretase inhibitors produced compounds with increased selectivity for beta-secretase over other aspartyl proteases such as cathepsin D (catD), cathepsin E (catE), HIV protease, and renin. Selectivity was calculated as a ratio of inhibition (IC50) values in which the inhibition of beta-secretase was compared to the inhibition of other aspartyl proteases. […] Alternatively, a compound is selective when its binding affinity is greater for its desired target (e.g., beta-secretase) versus a secondary target (e.g., catD). Accordingly, methods of treatment include administering selective compounds of formula (I) having a lower IC50 value for inhibiting beta-secretase, or greater binding affinity for beta-secretase, than for other aspartyl proteases such as catD, catE, HIV protease, or renin. A selective compound is also capable of producing a higher ratio of desired effects to adverse effects, resulting in a safer method of treatment.
The compounds of formula (I) can be selective for beta-secretase versus catD. […] Selectivity is reported as the ratio of IC50(catD):IC50(BACE).
In the following examples, each value is an average of four experimental runs and multiple values for one compound indicate that more than one experiment was conducted.

A-beta = assay: Efficacy of compounds to inhibit A-beta concentration (% inhibition vs vehicle control); format: in vivo, rat
Procedure: Efficacious compounds of the present invention are those able to decrease the amount of A-beta produced compared to a control, where beta-secretase mediated cleavage is observed and measured in the absence of the compounds. Detection of efficacy can be by analysis of A-beta levels, for example, by immunoassay, fluorometric or chromogenic assay, HPLC, or other means of detection. The efficacy of the compounds of formula (I) was determined as a percentage inhibition corresponding to A-beta concentrations for tissue treated and untreated with a compound of formula (I).
The invention encompasses compounds of formula (I) that are efficacious. Efficacy is calculated as a percentage of concentrations as follows: Efficacy=(1−(total A-beta in dose group/total A-beta in vehicle control))*100% wherein the “total A-beta in dose group” equals the concentration of A-beta in the tissue, (e.g., rat brain) treated with the compound, and the “total A-beta in vehicle control” equals the concentration of A-beta in the tissue, yielding a % inhibition of A-beta production. Statistical significance is determined by p-value<0.05 using the Mann Whitney t-test. See, for example, Dovey et al., J. Neurochemistry, 2001, 76:173-181. […]

BACE = BACE (Homo sapiens, UniProt P56817); assay: BACE EC50 (enzyme inhibition, Table on oral bioavailability); format: biochemical
[2] = Oral bioavailability in the male Sprague-Dawley rat (IV and PO); format: in vivo; details: plasma, 10 mg/kg
Procedure: The invention encompasses compounds of formula (I) that are orally bioavailable. Generally, oral bioavailability is defined as the fraction of orally administered dose reaching systemic circulation. Oral bioavailability can be determined following both an intravenous (IV) and oral (PO) administration of a test compound.
Oral bioavailability was determined in the male Sprague-Dawley rat following both IV and PO administration of test compound. Two month-old male rats (250-300 g) were surgically implanted with polyethylene (PE-50) cannula in the jugular vein while under isoflurane anesthesia the day before the in-life phase. Animals were fasted overnight with water ad libitum, then dosed the next day. The dosing regime. consisted of either a 5 mg/kg (2.5 mL/kg) IV dose (N=3) administered to the jugular vein cannula, then flushed with saline, or a 10 mg/kg (5 mL/kg) PO dose (N=3) by esophageal gavage. Compounds were formulated with 10% Solutol in 5% dextrose at 2 mg/mL. Subsequent to dosing, blood was collected at 0.016 (IV only), 0.083, 0.25, 0.5, 1, 3, 6, 9, and 24 h post administration, and heparinized plasma was recovered following centrifugation.
Compounds were extracted from samples following precipitation of the plasma proteins by methanol. The resulting supernatants were evaporated to dryness and reconstituted with chromatographic mobile phase (35% acetonitrile in 0.1% formic acid) and injected onto a reverse phase C18 column (2×50 mm, 5 μm, BDS Hypersil). Detection was facilitated with a multi-reaction-monitoring experiment on a tandem triple quadrupole mass spectrometer (LC/MS/MS) following electrospray ionization. Experimental samples were compared to calibration curves prepared in parallel with aged match rat plasma and quantitated with a weighted 1/x linear regression. The lower limit of quantization (LOQ) for the assay was typically 0.5 ng/mL.
Oral bioavailability (% F) is calculated from the dose normalized ratio of plasma exposure following oral administration to the intravenous plasma exposure in the rat by the following equation % F=(AUCpo/AUCiv)×(Div/Dpo)×100% where D is the dose and AUC is the area-under-the-plasma-concentration-time-curve from 0 to 24 h. AUC is calculated from the linear trapezoidal rule by AUC=((C2+C1)/2)×(T2−T1) where C is concentration and T is time.
Pharmacokinetic parameters were calculated by a non-compartmental approach. See, for example, Gibaldi, M. and Perrier, D., Pharmacokinetics, Second Edition, 1982, Marcel Dekker Inc., New York, N.Y., pp 409-418.

[3] = system: HEKp293 cells transfected with APP751 containing the Swedish mutation (A-beta); assay: cells; format: cell-based; details: Homo sapiens, read-out: Cell EC50 (nM)
From the text: An exemplary assay for the analysis of inhibition of beta-secretase activity utilizes the human embryonic kidney cell line HEKp293 (ATCC Accession No. CRL-1573) transfected with APP751 containing the naturally occurring double mutation Lys651Met652 to Asn651Leu652 (numbered for APP751), commonly called the Swedish mutation and shown to overproduce A-beta (Citron et al., 1992, Nature, 360:672-674), as described in U.S. Pat. No. 5,604,102.
At the end of the treatment period, conditioned media is analyzed for beta-secretase activity, for example, by analysis of cleavage fragments. A-beta can be analyzed by immunoassay, using specific detection antibodies.

[4] = 100 mg/kg, cortex, inhibition of total A-beta vs vehicle control
[5] = 100 mg/kg, plasma, inhibition of total A-beta vs vehicle control

Sequence of BACE (P56817 46-501): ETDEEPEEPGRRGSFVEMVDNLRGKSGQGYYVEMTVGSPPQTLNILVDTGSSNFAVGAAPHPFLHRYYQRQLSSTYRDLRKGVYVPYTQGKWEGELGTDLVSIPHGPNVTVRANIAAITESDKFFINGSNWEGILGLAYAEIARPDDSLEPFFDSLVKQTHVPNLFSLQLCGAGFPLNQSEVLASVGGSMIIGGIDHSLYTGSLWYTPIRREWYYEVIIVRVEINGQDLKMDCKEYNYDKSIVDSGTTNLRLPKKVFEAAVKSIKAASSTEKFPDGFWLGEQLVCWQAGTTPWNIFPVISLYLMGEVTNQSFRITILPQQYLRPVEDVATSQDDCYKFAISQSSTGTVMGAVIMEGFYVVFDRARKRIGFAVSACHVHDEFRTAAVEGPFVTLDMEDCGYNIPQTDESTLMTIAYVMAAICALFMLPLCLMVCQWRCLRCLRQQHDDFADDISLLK

SMILES	Efficacy (% Inhibition, 100 mg/kg) cortex (A-beta; [4])	Efficacy (% Inhibition, 100 mg/kg) plasma (A-beta; [5])	EC50 (BACE)	bioavailability [2]	further results
CC(C)(C)NC(=O)[C@@H]1CN(Cc2cccnc2)CCN1C[C@@H](O)C[C@@H](Cc1ccccc1)C(=O)N[C@H]1c2ccccc2C[C@H]1O [Indinavir]					concentration at 5 min (in vivo): 165 nM; concentration at 60 min (in vivo): 11 nM
CCc1ccc2c(c1)C(NCC(O)C(Cc1cc(F)cc(F)c1)NC(C)=O)CCN2 (stereo not drawn) [Example 91.7, N-[1-(3,5-Difluoro-benzyl)-3-(6-ethyl-1,2,3,4-tetrahydro-quinolin-4-ylamino)-2-hydroxy-propyl]-acetamide]					Selectivity IC50 catD/ IC50 BACE [1]: 2.1
CCc1ccc2c(c1)C(NCC(O)C(Cc1cc(F)cc(F)c1)NC(C)=O)CCC2 (single isomer, unassigned) [91.5 Diastereomer A]	35%	44%			
CC(C)(C)Cc1ccc2c(c1)C(NCC(O)C(Cc1cc(F)cc(F)c1)NC(=O)CF)CCC2 (stereo not drawn) [Example 91.3, N-{1-(3,5-Difluoro-benzyl)-3-[7-(2,2-dimethyl-propyl)-1,2,3,4-tetrahydro-naphthalen-1-ylamino]-2-hydroxy-propyl}-2-fluoro-acetamide]	14%	23%			
CCc1ccc2c(c1)C(NCC(O)C(Cc1cc(F)cc(F)c1)NC(C)=O)CCC2 (stereo not drawn) [Example 91.11, N-[1-(3,5-Difluoro-benzyl)-3-(7-ethyl-1,2,3,4-tetrahydro-naphthalen-1-ylamino)-2-hydroxy-propyl]-acetamide]			210 nM	14.3%	
CCc1cc(CC(C)(C)C)cc2c1CCCC2NCC(O)C(Cc1cc(F)cc(F)c1)NC(C)=O (single isomer, unassigned) [91.8 Diastereomer A]			12 nM	23.3%	EC50 [3]: 32 nM
CC(=O)NC(Cc1cc(F)cc(F)c1)C(O)CNC1c2cc(CC(C)(C)C)ccc2CCC1CO (stereo not drawn) [Example 91.6, N-{1-(3,5-Difluoro-benzyl)-3-[7-(2,2-dimethyl-propyl)-2-hydroxymethyl-1,2,3,4-tetrahydro-naphthalen-1-ylamino]-2-hydroxy-propyl}-acetamide]					Selectivity IC50 catD/ IC50 BACE [1]: 4.4
CC(=O)NC(Cc1cc(F)cc(F)c1)C(O)CNC1CCCc2ccc(CC(C)(C)C)cc21 (stereo not drawn) [Example 91.1, N-{1-(3,5-Difluoro-benzyl)-3-[7-(2,2-dimethyl-propyl)-1,2,3,4-tetrahydro-naphthalen-1-ylamino]-2-hydroxy-propyl}-acetamide]			9 nM	15%	Efficacy (% Inhibition, 100 mg/kg) cortex (A-beta; rat, in vivo): 47%; Efficacy (% Inhibition, 100 mg/kg) plasma (A-beta; rat, in vivo): 63%
CC(=O)NC(Cc1cc(F)cc(F)c1)C(O)CNC1CCNc2ccc(CC(C)(C)C)cc21 (single isomer, unassigned) [91.10 Diastereomer B]			190 nM	5%	EC50 [3]: 13 nM
CC(=O)NC(Cc1cc(F)cc(F)c1)C(O)CNC1CCNc2ccc(CC(C)(C)C)cc21 (single isomer, unassigned) [91.4 Diastereomer B]	18%	59%			
CCc1cc(CC(C)(C)C)cc2c1CCCC2NCC(O)C(Cc1cc(F)cc(F)c1)NC(C)=O (single isomer, unassigned) [91.2 Diastereomer A]	44%	57%			
